# System: Rattus norvegicus
# Assay: Percent fall in blood glucose level in male Sprague-Dawley rats when at 100 mg/kg dose was calculated by AUC method
# Type: functional
row,SMILES,Activity [%]
1,CN(C)C(=N)NC(=N)N [METFORMIN],12.9
2,Clc1ccc(-c2cc(Cc3nnn[nH]3)[nH]n2)cc1,10.8
3,c1ccc(-c2cc(Cc3nnn[nH]3)n[nH]2)cc1,10.6
4,Brc1ccc(-c2cc(Cc3nnn[nH]3)[nH]n2)cc1,18
5,CSCCOc1ccc(-c2cc(Cc3nnn[nH]3)[nH]n2)cc1,24.6
6,CSc1ccc(-c2cc(Cc3nnn[nH]3)[nH]n2)cc1,6.06
7,CN(CCOc1ccc(-c2cc(Cc3nnn[nH]3)[nH]n2)cc1)Cc1ccccc1,18
8,c1ccc2oc(-c3cc(Cc4nnn[nH]4)n[nH]3)cc2c1,6.2
9,c1csc(-c2cc(Cc3nnn[nH]3)n[nH]2)c1,21.4

# Source: ChEMBL document CHEMBL1143540, “Synthesis and in vivo antihyperglycemic activity of 5-(1H-pyrazol-3-yl)methyl-1H-tetrazoles” (2005)
